According to article PMC9272661 (Antiviral Research, 2022):

What was measured:
SARS-CoV-2 3CLpro [1] = target: T1, SARS-CoV-2 3CLpro (Severe acute respiratory syndrome coronavirus 2, UniProt P0DTD1); test: Enzyme kinetics, Lineweaver-Burk plots; format: biochemical; settings: 200 nM 3CLpro, inhibitor 5 μM or 10 μM
SARS-CoV-2 3CLpro [2] = target: T1, SARS-CoV-2 3CLpro; test: Inhibition of cleavage of TriPro substrate protein; format: biochemical; settings: 0.8 μM 3CLpro, 1 h preincubation, SDS-PAGE
SARS-CoV-2 3CLpro [3] = target: T1, SARS-CoV-2 3CLpro; test: FRET-based enzymatic assay of 3CLpro; format: biochemical; settings: at 50 μM concentration
SARS-CoV-2 3CLpro [4] = target: T1, SARS-CoV-2 3CLpro; test: Surface plasmon resonance binding to immobilized 3CLpro; settings: 0.164-100 μM, 25 °C, n = 3

| Compound | Inhibition Type (SARS-CoV-2 3CLpro [1]) | Inhibition of cleavage of TriPro substrate protein (SARS-CoV-2 3CLpro [2]) | Inhibitory activity against SARS-CoV-2 3CLpro (SARS-CoV-2 3CLpro [3]) | KD (SPR, steady-state affinity model) (SARS-CoV-2 3CLpro [4]) |
| --- | --- | --- | --- | --- |
| Cl.NCCOc1ccc(Cl)cc1C(=O)NCC(=O)Nc1ccc([N+](=O)[O-])cc1Cl [JMX0286, 2-(2-Aminoethoxy)-5-chloro-N-(2-((2-chloro-4-nitrophenyl)amino)-2-oxoethyl)benzamide hydrochloride] | Non-competitive | inhibited the cleavage of the TriPro substrate protein in a dose dependent manner |  |  |
| O=C(Nc1ccc([N+](=O)[O-])cc1Cl)c1cc(Cl)ccc1O [niclosamide] |  |  | does not inhibit |  |
| CC(C)(C)OC(=O)NCCOc1ccc(Cl)cc1C(=O)NCC(=O)Nc1ccc([N+](=O)[O-])cc1Cl [JMX0301, Tert-Butyl (2-(4-chloro-2-((2-((2-chloro-4-nitrophenyl)amino)-2-oxoethyl)carbamoyl)phenoxy)ethyl)carbamate] | Non-competitive | inhibited the cleavage of the TriPro substrate protein in a dose dependent manner |  | did not show binding |
